Experimental findings from paper PMC6605100 (Peptide science (Hoboken, N.J.), 2018) are described below.

A short description of series [1]: Peptide degradation assay in HeLa lysates, RP-HPLC. The settings on record: 30 μM peptide, HeLa lysates 2 mg/mL, 10 mM Tris-HCl pH 7.6, 37°C, HPLC UV 442 nm.
Series [2] deals with HeLa cells.

In the case of `N=C(N)NCCC[C@H](NC(=O)[C@H](CCCNC(=N)N)NC(=O)[C@H](CCCNC(=N)N)NC(=O)[C@H](CCC(N)=O)NC(=O)[C@H](CCCNC(=N)N)NC(=O)[C@H](CCCNC(=N)N)NC(=O)[C@H](CCCCN)NC(=O)[C@H](CCCCN)NC(=O)[C@H](CCCNC(=N)N)NC(=O)CNC(=O)[C@H](Cc1ccc(O)cc1)NC(=O)c1ccc2c(c1)C(=O)OC21c2ccc(O)cc2Oc2cc(O)ccc21)C(N)=O` [TAT], the “time within which the peptide was mostly degraded” value in series [1] is no more than 30 min.
With Ac-RWVKVpGOWIKQ-NH2 [WKWK], the “entry into intact cells (permeability)” value in series [2] is “found to enter intact HeLa cells”.
